Assay results: US4011327A (priority 1975, dated 1977)
Values after ≈ are worked out from the molar mass of the structure shown. Values joined by “and” are separate entries in the source; they are usually repeats but may differ in a detail not shown here. Identical values can stand only once. Like-named read-outs stand apart in the source and are kept apart here.

Experiments:
Type in all cases: cell-based
[1] = test system: Sporotrichum schenckii; experiment: Antifungal activity in vitro, mycelial growth on Sabouraud dextrose agar; conditions: for weekly increments of the diameter of colony: duplicates a, b; for MIC: Sporothrix schenckii
[2] = test system: Histoplasma capsulatum; experiment: microbe, parasite or virus in culture; conditions: for weekly increments of the diameter of colony: duplicates a, b; for MIC: Histoplasma capsulatum
[3] = test system: Trichophyton rubrum; experiment: Antifungal activity in vitro, mycelial growth on Sabouraud dextrose agar; conditions: for weekly increments of the diameter of colony: duplicates a, b; for MIC: Trichophyton rubrum
[4] = test system: Blastomyces dermatitidis; experiment: as above; conditions: for weekly increments of the diameter of colony: duplicates a, b; for MIC: Blastomyces dermatitidis
[5] = 336 h, two week period, read-out: minimum in vitro inhibitory concentration
[6] = 336 h, read-out: minimum in vitro inhibitory concentration

CSC1(C)CCC2C(C)CCC(c3ccoc3)N2C1O (single isomer, unassigned) [Example 7-MTDOL, 7β-methylthiodeoxynupharidin-6α-ol]
weekly increments of the diameter of colony ([1]; 10 mcg/ml, week 1, No. 1109, 25° C): 11 mm and 10 mm
weekly increments of the diameter of colony ([1]; 10 mcg/ml, week 2, No. 1109, 25° C): 25 mm and 24 mm
weekly increments of the diameter of colony ([1]; 20 mcg/ml, week 2, No. 1109, 25° C): 20 mm
weekly increments of the diameter of colony ([1]; 20 mcg/ml, week 3, No. 1109, 25° C): 31 mm and 29 mm
weekly increments of the diameter of colony ([1]; 40 mcg/ml, week 2, No. 1109, 25° C, a: colony overgrown by adjacent culture): 18 mm and 15 mm
weekly increments of the diameter of colony ([1]; 40 mcg/ml, week 3, No. 1109, 25° C, a: colony overgrown by adjacent culture): 18 mm and 25 mm
weekly increments of the diameter of colony ([1]; 60 mcg/ml, week 1, No. 1109, 25° C): 0 mm
weekly increments of the diameter of colony ([1]; 60 mcg/ml, week 2, No. 1109, 25° C): 10 mm
weekly increments of the diameter of colony ([1]; 60 mcg/ml, week 3, No. 1109, 25° C): 20 mm
weekly increments of the diameter of colony ([1]; 80 mcg/ml, week 1, No. 1109, 25° C): 0 mm
weekly increments of the diameter of colony ([1]; 80 mcg/ml, week 2, No. 1109, 25° C): 0 mm
weekly increments of the diameter of colony ([1]; 100 mcg/ml, week 1, No. 1109, 25° C): 0 mm
weekly increments of the diameter of colony ([1]; 100 mcg/ml, week 2, No. 1109, 25° C): 0 mm
weekly increments of the diameter of colony ([1]; 100 mcg/ml, week 3, No. 1109, 25° C): 0 mm
MIC [1, 5]: 100 µg/mL (≈ 338 µM)
MIC ([1]; 504 h, up to the end of 3 weeks, Sabouraud dextrose agar, read-out: concentration inhibiting growth): 100 µg/mL (≈ 338 µM)
weekly increments of the diameter of colony ([2]; 10 mcg/ml, week 2, No. 1106, 25° C): 15 mm and 10 mm
weekly increments of the diameter of colony ([2]; 10 mcg/ml, week 3, No. 1106, 25° C): 25 mm and 29 mm
weekly increments of the diameter of colony ([2]; 20 mcg/ml, week 1, No. 1106, 25° C): 0 mm
weekly increments of the diameter of colony ([2]; 20 mcg/ml, week 3, No. 1106, 25° C): 10 mm and 5 mm
weekly increments of the diameter of colony ([2]; 40 mcg/ml, week 1, No. 1106, 25° C): 0 mm
weekly increments of the diameter of colony ([2]; 60 mcg/ml, week 1, No. 1106, 25° C): 0 mm
weekly increments of the diameter of colony ([2]; 60 mcg/ml, week 2, No. 1106, 25° C): 0 mm
weekly increments of the diameter of colony ([2]; 60 mcg/ml, week 3, No. 1106, 25° C): 0 mm
weekly increments of the diameter of colony ([2]; 80 mcg/ml, week 1, No. 1106, 25° C): 0 mm
weekly increments of the diameter of colony ([2]; 80 mcg/ml, week 2, No. 1106, 25° C): 0 mm
weekly increments of the diameter of colony ([2]; 80 mcg/ml, week 3, No. 1106, 25° C): 0 mm
weekly increments of the diameter of colony ([2]; 100 mcg/ml, week 1, No. 1106, 25° C): 0 mm
weekly increments of the diameter of colony ([2]; 100 mcg/ml, week 2, No. 1106, 25° C): 0 mm
weekly increments of the diameter of colony ([2]; 100 mcg/ml, week 3, No. 1106, 25° C): 0 mm
MIC [2, 6]: 40 µg/mL (≈ 135 µM)
MIC ([2]; 504 h, read-out: concentration inhibiting mycelial growth): 40 µg/mL (≈ 135 µM)
weekly increments of the diameter of colony ([3]; 10 mcg/ml, week 1, No. 1112, 25° C): 10 mm and 11 mm
weekly increments of the diameter of colony ([3]; 10 mcg/ml, week 2, No. 1112, 25° C, colony overgrown by adjacent culture): 20 mm
weekly increments of the diameter of colony ([3]; 10 mcg/ml, week 3, No. 1112, 25° C, colony overgrown by adjacent culture): 22 mm and 25 mm
weekly increments of the diameter of colony ([3]; 20 mcg/ml, week 1, No. 1112, 25° C): 8 mm and 7 mm
weekly increments of the diameter of colony ([3]; 20 mcg/ml, week 2, No. 1112, 25° C): 21 mm and 20 mm
weekly increments of the diameter of colony ([3]; 20 mcg/ml, week 3, No. 1112, 25° C, b: colony overgrown by adjacent culture): 30 mm and 22 mm
weekly increments of the diameter of colony ([3]; 40 mcg/ml, week 1, No. 1112, 25° C): 8 mm and 6 mm
weekly increments of the diameter of colony ([3]; 40 mcg/ml, week 2, No. 1112, 25° C): 20 mm and 18 mm
weekly increments of the diameter of colony ([3]; 40 mcg/ml, week 3, No. 1112, 25° C): 30 mm and 26 mm
weekly increments of the diameter of colony ([3]; 60 mcg/ml, week 2, No. 1112, 25° C): 8 mm and 6 mm
weekly increments of the diameter of colony ([3]; 60 mcg/ml, week 3, No. 1112, 25° C): 14 mm and 15 mm
weekly increments of the diameter of colony ([3]; 80 mcg/ml, week 1, No. 1112, 25° C): 0 mm
weekly increments of the diameter of colony ([3]; 80 mcg/ml, week 2, No. 1112, 25° C): 5 mm
weekly increments of the diameter of colony ([3]; 80 mcg/ml, week 3, No. 1112, 25° C): 9 mm and 6 mm
weekly increments of the diameter of colony ([3]; 100 mcg/ml, week 3, No. 1112, 25° C): 6 mm and 7 mm
MIC [3, 6]: 100 µg/mL (≈ 338 µM)
MIC ([3]; 504 h, read-out: concentration inhibiting growth): 100 µg/mL (≈ 338 µM)
weekly increments of the diameter of colony ([4]; 10 mcg/ml, week 1, No. 1107, 25° C): 14 mm
weekly increments of the diameter of colony ([4]; 10 mcg/ml, week 2, No. 1107, 25° C): 20 mm and 21 mm
weekly increments of the diameter of colony ([4]; 10 mcg/ml, week 3, No. 1107, 25° C): 35 mm and 32 mm
weekly increments of the diameter of colony ([4]; 20 mcg/ml, week 1, No. 1107, 25° C): 10 mm
weekly increments of the diameter of colony ([4]; 20 mcg/ml, week 2, No. 1107, 25° C): 16 mm and 15 mm
weekly increments of the diameter of colony ([4]; 20 mcg/ml, week 3, No. 1107, 25° C): 17 mm and 18 mm
weekly increments of the diameter of colony ([4]; 40 mcg/ml, week 1, No. 1107, 25° C): 7 mm and 6 mm
weekly increments of the diameter of colony ([4]; 40 mcg/ml, week 2, No. 1107, 25° C): 15 mm
weekly increments of the diameter of colony ([4]; 40 mcg/ml, week 3, No. 1107, 25° C): 20 mm and 28 mm
weekly increments of the diameter of colony ([4]; 60 mcg/ml, week 1, No. 1107, 25° C): 0 mm
weekly increments of the diameter of colony ([4]; 60 mcg/ml, week 2, No. 1107, 25° C): 5 mm
weekly increments of the diameter of colony ([4]; 60 mcg/ml, week 3, No. 1107, 25° C): 5 mm and 7 mm
weekly increments of the diameter of colony ([4]; 80 mcg/ml, week 1, No. 1107, 25° C): 0 mm
weekly increments of the diameter of colony ([4]; 80 mcg/ml, week 2, No. 1107, 25° C): 0 mm
weekly increments of the diameter of colony ([4]; 100 mcg/ml, week 1, No. 1107, 25° C): 0 mm
MIC [4, 5]: 80 µg/mL (≈ 271 µM)
MIC ([4]; 504 h, up to the end of 3 weeks, Sabouraud dextrose agar, read-out: concentration inhibiting mycelial growth): 80 µg/mL (≈ 271 µM)
